Values of other authors in patent US8748497B2, “Optimized fluorocarbon emulsions for blood substitutes and other therapeutic uses” (Alliance Pharmaceutical Corp., priority 2006, dated 2014).

Conditions: components of FLUOSOL; cited from earlier work

FC1(F)C(F)(F)C(F)(F)C2(F)C(F)(F)C(F)(F)C(F)(F)C(F)(F)C2(F)C1(F)F (centres unmarked) [F-decalin, perfluorodecalin]
rate constant for RES elimination (k24): 0.10 day⁻¹

FC(F)(F)C(F)(F)C(F)(F)N(C(F)(F)C(F)(F)C(F)(F)F)C(F)(F)C(F)(F)C(F)(F)F [F-tripropylamine, perfluorotripropylamine]
rate constant for RES elimination (k24): 0.011 day⁻¹
